The subject of the test is HIV replication in T-lymphoid cells. Kind of test: Spread assay: inhibition of acute HIV infection of T-lymphoid cells. In kind it is cell-based. To be noted: read-out: IC95, spread assay (inhibition of HIV replication). How it is done: An assay for the inhibition of acute HIV infection of T-lymphoid cells (alternatively referred to herein as the “spread assay”) was conducted in accordance with Vacca, J. P. et al., Proc. Natl. Acad. Sci. USA 1994, 91: 4096. […] The compounds of Examples 26, 29, 30, 33-35 and 62 were tested in the spread assay up to 10 micromolar, but specific IC95 values were not obtained; i.e., the IC95 values were greater than 10 micromolar. The compounds of Examples 47 and 61 were not tested.

Setting [1] is: Human immunodeficiency virus 1, acute HIV infection of T-lymphoid cells, tested up to 10 micromolar.
Setting [2] is: Human immunodeficiency virus 1, T-lymphoid.

Broadly, the IC95 is the point of the concentration-response curve where the effect stands at 95%.

Read-outs that look alike come from different tables or passages of the source.

In the case of `NC(=O)c1[nH]c2ccc(Cl)cc2c1S(=O)(=O)N1CCCC1C(F)(F)F` (stereo not drawn) [Example 40, 5-chloro-3-{[2-(trifluoromethyl)pyrrolidin-1-yl]sulfonyl}-1H-indole-2-carboxamide], the IC95 under setting [1] is under 1000 nM.

With `CCOC(=O)c1[nH]c2ccc(Br)cc2c1S(=O)(=O)NCCOC` [Example 28, ethyl 5-bromo-3-{[(2-methoxyethyl)amino]sulfonyl}-1H-indole-2-carboxylate], the IC95 under setting [2] was under 1000 nM.

On to `NC(=O)c1[nH]c2ccc(Br)cc2c1S(=O)(=O)N1CCC(F)(F)CC1` [Example 43, 5-bromo-3-[(4,4-difluoropiperidin-1-yl)sulfonyl]-1H-indole-2-carboxamide], for which, under setting [1], the IC95 is under 1000 nM.

In the case of `COCCNC(=O)c1[nH]c2ccc(Br)cc2c1S(=O)(=O)N1CCCC1` [Example 56, 5-bromo-N-(2-methoxyethyl)-3-(pyrrolidin-1-ylsulfonyl)-1H-indole-2-carboxamide], under setting [1], the IC95 is under 1000 nM.

Turning to `CCOC(=O)c1[nH]c2ccc(Br)cc2c1S(=O)(=O)N1CCCC1C(F)(F)F` (stereo not drawn) [Example 30, ethyl 5-bromo-3-{[2-(trifluoromethyl)pyrrolidin-1-yl]sulfonyl}-1H-indole-2-carboxylate], the IC95 under setting [2] is over 10000 nM.

In the case of `O=C(NCCc1cnc[nH]1)c1[nH]c2ccc(Br)cc2c1S(=O)(=O)N1CCCC1` [Example 49, 5-bromo-N-[2-(1H-imidazol-5-yl)ethyl]-3-(pyrrolidin-1-ylsulfonyl)-1H-indole-2-carboxamide], the IC95 under setting [1] is under 1000 nM.

As to `CN1CCC(CNC(=O)c2[nH]c3ccc(Br)cc3c2S(=O)(=O)N2CCCC2)C1` (stereo not drawn) [Example 60, 5-bromo-N-[(1-methylpyrrolidin-3-yl)methyl]-3-(pyrrolidin-1-ylsulfonyl)-1H-indole-2-carboxamide], under setting [1], the IC95 is under 1000 nM.

In the case of `COC1CCCN(S(=O)(=O)c2c(C(N)=O)[nH]c3ccc(Br)cc23)C1` (stereo not drawn) [Example 20, 5-bromo-3-[(3-methoxypiperidin-1-yl)sulfonyl]-1H-indole-2-carboxamide], the IC95 under setting [1] was under 1000 nM.

For `O=C(NCc1ccon1)c1[nH]c2ccc(Br)cc2c1S(=O)(=O)N1CCCC1` [Example 58, 5-bromo-N-(isoxazol-3-ylmethyl)-3-(pyrrolidin-1-ylsulfonyl)-1H-indole-2-carboxamide], the IC95 under setting [1] is under 1000 nM.

With `O=C(NCc1ccccn1)c1[nH]c2ccc(Br)cc2c1S(=O)(=O)N1CCCC1` [Example 54, 5-bromo-N-(pyridin-2-ylmethyl)-3-(pyrrolidin-1-ylsulfonyl)-1H-indole-2-carboxamide], the IC95 under setting [1] is under 1000 nM.

Consider `O=C(NCCO)c1[nH]c2ccc(Br)cc2c1S(=O)(=O)NC1CCCC1` [Example 35, 5-bromo-3-[(cyclopentylamino)sulfonyl]-N-(2-hydroxyethyl)-1H-indole-2-carboxamide], for which, under setting [1], the IC95 is over 10000 nM.

For `CCOC(=O)c1[nH]c2ccc(Br)cc2c1S(=O)(=O)NC1CCCC1` [Example 29, ethyl 5-bromo-3-[(cyclopentylamino)sulfonyl]-1H-indole-2-carboxylate], the IC95 under setting [2] was over 10000 nM.

For the compound `NS(=O)(=O)c1ccc(CNC(=O)c2[nH]c3ccc(Br)cc3c2S(=O)(=O)N2CCCC2)cc1` [Example 55, N-[4-(aminosulfonyl)benzyl]-5-bromo-3-(pyrrolidin-1-ylsulfonyl)-1H-indole-2-carboxamide], the IC95 under setting [1] is under 1000 nM.

Consider `O=C(NCc1nc2cccnc2[nH]1)c1[nH]c2ccc(Br)cc2c1S(=O)(=O)N1CCCC1` [Example 63, 5-bromo-N-(3H-imidazo[4,5-b]pyridin-2-ylmethyl)-3-(pyrrolidin-1-ylsulfonyl)-1H-indole-2-carboxamide], for which the IC95 under setting [1] is under 1000 nM.

`CCCNS(=O)(=O)c1c(C(N)=O)[nH]c2ccc(Br)cc12` [Example 23, 5-bromo-3-[(propylamino)sulfonyl]-1H-indole-2-carboxamide]: the IC95 under setting [1] is under 1000 nM.

With `NC(=O)c1[nH]c2ccc(Cl)cc2c1S(=O)(=O)N1CCCC(F)C1` (stereo not drawn) [Example 41, 5-chloro-3-[(3-fluoropiperidin-1-yl)sulfonyl]-1H-indole-2-carboxamide], the IC95 under setting [1] is under 1000 nM.

Regarding `COC(=O)c1[nH]c2ccc(Br)cc2c1S(=O)(=O)N1CCCCC1` [Example 24, methyl 5-bromo-3-(piperidin-1-ylsulfonyl)-1H-indole-2-carboxylate], the IC95 under setting [1] was under 1000 nM.

For the compound `NC(=O)c1[nH]c2ccc(Cl)cc2c1S(=O)(=O)NC1CCC1` [Example 3, 5-chloro-3-[(cyclobutylamino)sulfonyl]-1H-indole-2-carboxamide], the 95% effect concentration (IC95) under setting [1] is under 1000 nM.

As to `NC(=O)c1[nH]c2ccc(Br)cc2c1S(=O)(=O)NC1CCC1` [Example 44, 5-bromo-3-[(cyclobutylamino)sulfonyl]-1H-indole-2-carboxamide], the IC95 under setting [1] was under 1000 nM.

As for `NC(=O)c1[nH]c2ccc(Br)cc2c1S(=O)(=O)N1CCC(F)CC1` [Example 45, 5-bromo-3-[(4-fluoropiperidin-1-yl)sulfonyl]-1H-indole-2-carboxamide], the IC95 under setting [1] is under 1000 nM.

On to `O=C(NCCCn1ccnc1)c1[nH]c2ccc(Br)cc2c1S(=O)(=O)N1CCCC1` [Example 52, 5-bromo-N-[3-(1H-imidazol-1-yl)propyl]-3-(pyrrolidin-1-ylsulfonyl)-1H-indole-2-carboxamide], for which the IC95 under setting [1] is under 1000 nM.

Consider `NC(=O)c1[nH]c2ccc(Br)cc2c1S(=O)(=O)N1CCC(F)(F)C1` [Example 42, 5-bromo-3-[(3,3-difluoropyrrolidin-1-yl)sulfonyl]-1H-indole-2-carboxamide], for which the IC95 under setting [1] is under 1000 nM.

For `C=Cc1ccc2[nH]c(C(N)=O)c(S(=O)(=O)N3CCCC3)c2c1` [Example 66, 3-(pyrrolidin-1-ylsulfonyl)-5-vinyl-1H-indole-2-carboxamide], the concentration for an effect of 95% (IC95) under setting [1] was under 1000 nM.

As for `COC(=O)c1[nH]c2ccc(Br)cc2c1S(=O)(=O)NC1CCCC1` [Example 26, methyl 5-bromo-3-[(cyclopentylamino)sulfonyl]-1H-indole-2-carboxylate], the IC95 under setting [2] is over 10000 nM.

Consider `NC(=O)c1[nH]c2ccc(-c3cccc4ncccc34)cc2c1S(=O)(=O)N1CCCC1` [Example 67, 3-(pyrrolidin-1-ylsulfonyl)-5-quinolin-5-yl-1H-indole-2-carboxamide], for which, under setting [1], the IC95 was under 1000 nM.

`O=C(NCc1cscn1)c1[nH]c2ccc(Br)cc2c1S(=O)(=O)N1CCCC1` [Example 57, 5-bromo-3-(pyrrolidin-1-ylsulfonyl)-N-(1,3-thiazol-4-ylmethyl)-1H-indole-2-carboxamide]: under setting [1], the IC95 is under 1000 nM.

With `NC(=O)c1[nH]c2ccc(Cl)cc2c1S(=O)(=O)N1CCC1` [Example 7, 3-(azetidin-1-ylsulfonyl)-5-chloro-1H-indole-2-carboxamide], under setting [1], the IC95 was under 1000 nM.

`O=C(NCc1ncc(-c2ccccc2)[nH]1)c1[nH]c2ccc(Br)cc2c1S(=O)(=O)N1CCCC1` [Example 62, 5-bromo-N-[(5-phenyl-1H-imidazol-2-yl)methyl]-3-(pyrrolidin-1-ylsulfonyl)-1H-indole-2-carboxamide]: the IC95 under setting [1] is over 10000 nM.

Turning to `NC(=O)c1[nH]c2ccc(Cl)cc2c1S(=O)(=O)N1CCC(F)CC1` [Example 46, 5-chloro-3-[(4-fluoropiperidin-1-yl)sulfonyl]-1H-indole-2-carboxamide], the IC95 under setting [1] is under 1000 nM.

Regarding `O=C(NCc1cccnc1)c1[nH]c2ccc(Br)cc2c1S(=O)(=O)N1CCCC1` [Example 50, 5-bromo-N-(pyridin-3-ylmethyl)-3-(pyrrolidin-1-ylsulfonyl)-1H-indole-2-carboxamide], the IC95 under setting [1] is under 1000 nM.

With `O=C(NCCO)c1[nH]c2ccc(Br)cc2c1S(=O)(=O)NC1CC1` [Example 33, 5-bromo-3-[(cyclopropylamino)sulfonyl]-N-(2-hydroxyethyl)-1H-indole-2-carboxamide], the IC95 under setting [1] was over 10000 nM.

Regarding `NC(=O)c1[nH]c2ccc(Br)cc2c1S(=O)(=O)N1CCC(F)C1` (stereo not drawn) [Example 22, 5-bromo-3-[(3-fluoropyrrolidin-1-yl)sulfonyl]-1H-indole-2-carboxamide], the IC95 under setting [1] is under 1000 nM.

In the case of `CCOC(=O)c1[nH]c2ccc(Br)cc2c1S(=O)(=O)N1CCCCC1` [Example 27, ethyl 5-bromo-3-(piperidin-1-ylsulfonyl)-1H-indole-2-carboxylate], the IC95 under setting [2] fell in the range of 1000 to 10000 nM.

As to `O=C1CN(S(=O)(=O)c2c(C(=O)NCCO)[nH]c3ccc(Br)cc23)CCN1` [Example 36, 5-bromo-N-(2-hydroxyethyl)-3-[(3-oxopiperazin-1-yl)sulfonyl]-1H-indole-2-carboxamide], the IC95 under setting [2] was 1000 to 10000 nM.

On to `COC(=O)c1[nH]c2ccc(Br)cc2c1S(=O)(=O)N1CCCC1` [Example 25, methyl 5-bromo-3-(pyrrolidin-1-ylsulfonyl)-1H-indole-2-carboxylate], for which, under setting [1], the IC95 was under 1000 nM.

Turning to `O=C(NCCO)c1[nH]c2ccc(Br)cc2c1S(=O)(=O)NC1CCCCC1` [Example 34, 5-bromo-3-[(cyclohexylamino)sulfonyl]-N-(2-hydroxyethyl)-1H-indole-2-carboxamide], the IC95 under setting [1] is over 10000 nM.
